The structures appear in SMILES notation.

The first test deals with T1, Squalene--hopene cyclase (Alicyclobacillus acidocaldarius subsp. acidocaldarius (strain ATCC27009 / DSM 446 / 104-1A) (Bacillus acidocaldarius)) (UniProt P33247).
T1 sequence (whole entry): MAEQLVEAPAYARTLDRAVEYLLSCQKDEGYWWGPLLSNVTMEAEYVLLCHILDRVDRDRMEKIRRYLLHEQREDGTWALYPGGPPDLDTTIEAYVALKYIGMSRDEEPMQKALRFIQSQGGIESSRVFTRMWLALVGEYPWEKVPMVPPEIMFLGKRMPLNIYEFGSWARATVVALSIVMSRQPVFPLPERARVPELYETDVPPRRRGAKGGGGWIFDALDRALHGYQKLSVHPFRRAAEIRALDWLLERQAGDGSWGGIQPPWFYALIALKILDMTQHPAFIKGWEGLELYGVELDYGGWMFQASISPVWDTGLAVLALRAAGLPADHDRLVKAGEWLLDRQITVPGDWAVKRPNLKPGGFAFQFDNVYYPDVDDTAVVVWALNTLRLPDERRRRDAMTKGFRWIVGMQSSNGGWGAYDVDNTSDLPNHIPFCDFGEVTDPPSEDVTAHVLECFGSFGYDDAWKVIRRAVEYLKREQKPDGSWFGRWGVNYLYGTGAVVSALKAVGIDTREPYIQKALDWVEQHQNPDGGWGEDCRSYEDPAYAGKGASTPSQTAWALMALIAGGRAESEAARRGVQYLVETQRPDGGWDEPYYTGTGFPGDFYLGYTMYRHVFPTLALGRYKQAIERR
The experiment in a line: Inhibitory activity against squalene hopene cyclase from Alicyclobacillus acidocaldarius expressed in Escherichia coli at a concentration of 100 uM.
Take `CC(=O)Oc1cc2ccc(=O)oc2cc1OC/C=C(\C)CC/C=C(\C)CCC1OC1(C)C` (centres undefined): the inhibition (in general, the drop in the measured response relative to a control, in per cent) stood at 46%.
The same measure, in the same setting: for `C/C(=C\COc1cc(=O)oc2ccccc12)CC/C=C(\C)CCC1OC1(C)C` (centres undefined) the value was 40%; for `CC(=O)Oc1cc2ccc(=O)oc2cc1OC/C=C(\C)CCC1OC1(C)CCC1OC1(C)C` (centres undefined), 7%.

In a further test the target is T2, Squalene--hopene cyclase (Alicyclobacillus acidocaldarius subsp. acidocaldarius (strain ATCC27009 / DSM 446 / 104-1A) (Bacillus acidocaldarius), UniProt P33247).
T2 sequence (P33247 whole entry): T1 sequence (whole entry)
In words: Inhibitory activity against squalene hopene cyclase from Alicyclobacillus acidocaldarius expressed in Escherichia coli at a concentration of 100 uM; n.a. = not active.
In the case of `C=C1CC[C@@H]2C(C)(C)[C@H](O)CC[C@@]2(C)[C@@H]1COc1ccc2ccc(=O)oc2c1`, the IC50 (as a rule, the midpoint of a concentration-inhibition curve) was “Not Active”.
Regarding `CC1(C)[C@H]2CC[C@](C)(O)[C@@H](COc3ccc4ccc(=O)oc4c3)[C@]2(C)CC[C@@H]1O`, the IC50 entry was “Not Active”.
With `CC(C)=CCC/C(C)=C/CC/C(C)=C/Cc1c(O)oc2cc(O)ccc2c1=O`, the half-inhibitory concentration (IC50) entry is “Not Active”.
With `CC(=O)O[C@H]1CC[C@]2(C)[C@H](CC[C@](C)(O)[C@H]2COc2ccc3ccc(=O)oc3c2)C1(C)C`, the IC50 entry is listed as “Not Active”.
`CC1(C)C(=O)CC[C@]2(C)[C@@H]1CC[C@](C)(O)[C@H]2COc1ccc2ccc(=O)oc2c1`: the 50% inhibitory concentration (IC50) entry is “Not Active”.
Turning to `C=C1CC[C@@H]2C(C)(C)C(=O)CC[C@@]2(C)[C@@H]1COc1ccc2ccc(=O)oc2c1`, the half-inhibitory concentration (IC50) result is given as “Not Active”.
Still for that read-out and setting: the same measure for `CC(C)=CCC/C(C)=C/CC/C(C)=C/COc1cc(=O)oc2ccccc12`: “Not Active”.

The next test deals with T2, Squalene--hopene cyclase. In words: Inhibitory activity against squalene hopene cyclase from Alicyclobacillus acidocaldarius expressed in Escherichia coli.
Turning to `CC(=O)Oc1ccc2c(OC(C)=O)c(C/C=C(\C)CC/C=C(\C)CCC3OC3(C)C)c(=O)oc2c1` (centres undefined), half-maximal inhibition (IC50) required 100 µM.
Compound `CC(C)=CCC/C(C)=C/CC/C(C)=C/COc1ccc2ccc(=O)oc2c1` [UMBELLIPRENIN] returned an IC50 of 70 µM.
The compound `CC(C)=CCC/C(C)=C/CC/C(C)=C/Cc1c(O)c2ccccc2oc1=O` showed an IC50 of 90 µM.
On the same count and under the same terms, for `C/C(=C\COc1ccc2ccc(=O)oc2c1)CC/C=C(\C)CCC1OC1(C)C` (centres undefined) the value was 2.5 µM; for `C/C(=C\COc1ccc2ccc(=O)oc2c1)CCC1OC1(C)CCC1OC1(C)C` (centres undefined), 1.5 µM; for `C/C(=C\COc1ccc2ccc(=O)oc2c1)CC[C@H]1C2(C)CC[C@@H](O2)C1(C)C` (single isomer, unassigned) [FARNESIFEROL C], 7 µM.
Compound `C/C(=C\COc1cc2oc(=O)ccc2cc1O)CC/C=C(\C)CCC1OC1(C)C` (centres undefined) displayed an IC50 of 67 µM. Compared with the last compound, the IC50 is about 9.6-fold higher.
Regarding `C/C(=C\COc1ccc2ccc(=O)oc2c1)CC/C=C(\C)CCC(O)C(C)(C)O` (centres undefined), half-maximal inhibition (IC50) was put at 65 µM.

The next test has as its target T1, Squalene--hopene cyclase (Alicyclobacillus acidocaldarius subsp. acidocaldarius (strain ATCC27009 / DSM 446 / 104-1A) (Bacillus acidocaldarius)). In words: IInhibitory activity against squalene hopene cyclase from Alicyclobacillus acidocaldarius expressed in Escherichia coli at a concentration of 100 uM.
As to `CC(=O)Oc1ccc2c(OC(C)=O)c(C/C=C(\C)CCC3OC3(C)CCC3OC3(C)C)c(=O)oc2c1` (centres undefined), the inhibition was determined as 38%.

(Values after ChEMBL document CHEMBL1147531, “Farnesyloxycoumarins, a new class of squalene-hopene cyclase inhibitors” (Bioorg Med Chem Lett, 2004).)
